Columns and labels:
Format in all cases: biochemical
JNK2α2 = target: T1, JNK2α2 (Homo sapiens, UniProt P45984); assay: Kinase selectivity, ATF2 phosphorylation ELISA
T1 construct: purchased Upstate (Charlottesville, Va.)
Description: (§1) All kinases and the substrate ATF2 are acquired from Upstate (Charlottesville, Va.). p38 MAP Kinases are recombinant human full-length proteins with an amino-terminal GST fusion, expressed in and purified from E. coli. ATF2 is a GST fusion protein containing amino acids 19-96 of human ATF2 expressed in E. coli. All proteins were aliquoted and stored at −80° C.
(§2) p38 MAP Kinase assays are performed using an assay buffer containing 25 mM HEPES, pH 7.5, 10 mM MgCl2, 2 mM DTT, 20 mM β-glycerophosphate, 0.1 mM Na3VO4, 40 μM ATP and 1.25 μM of ATF2, together with 6 ng of p38α protein, 12 ng p38β protein, 1.5 ng p38γ, or 0.4 ng JNK2α2. Compounds are serially diluted in DMSO and 2 μL of test compound at 25× final concentration is used. The vehicle control receives DMSO only. Test compounds are pre-incubated with 20 μl of enzyme in kinase buffer (25 mM HEPES, pH 7.5, 10 mM MgCl2, 2 mM DTT, 20 mM 3-glycerophosphate and 0.1 mM Na3VO4) at room temperature for 15 minutes. […] The reactions are incubated for 30 minutes at 37° C. and terminated by the addition of 18 μl of 200 mM EDTA. An ELISA method is used to measure the phosphorylation of ATF2 at Thr 69. High binding 96-well plates (Corning 3369) are coated with 50 μl of kinase reaction for 1 hour at 37° C. The coated plates are washed with 200 μl washing buffer (25 mM Tris HCl, pH 8.3, 192 mM glycine, 0.1% SDS and 0.05% Tween-20) three times. The plates are then washed three times with SuperBlock in TBS (Pierce, 37535). After blocking, plates are incubated with 50 μl of rabbit anti-phospho-ATF2 antibody (Cell Signaling, 9221 L, 1:500) for 30 minutes at 37° C. Plates are washed three times with washing buffer prior to incubation with 50 μl HRP-conjugated goat anti-rabbit antibody (Cell Signaling, 7074, 1:500) for 30 minutes at 37° C. Plates are then washed three times with washing buffer before incubation with 50 μl of Ultra TMB-ELISA (Pierce, 34028) for 8 minutes at room temperature. Finally, 50 μl of phosphoric acid (1 M) is added to stop reactions and plate absorbance is read at 450 nm on a SpectraMax 250 plate reader.
(§3) A selectivity panel is used to test the cross-reactivity of compounds of the invention with the β and γ isoforms of p38 MAP kinase, Src^p60 and JNK2α2. The p38β, p38γ, and JNK2α2 assays are described in Example 4. The Src^p60 assay measures the ability of compounds to inhibit Src^p60-catalyzed phosphorylation of a peptide substrate.

p38γ = target: T2, p38γ (Homo sapiens, UniProt P53778); assay: Kinase selectivity, ATF2 phosphorylation ELISA
T2 construct: p38 MAP Kinases are recombinant human full-length proteins with an amino-terminal GST fusion; GST (N); purchased Upstate (Charlottesville, Va.); host or cells: E. coli
T2 sequence (P53778 1-367): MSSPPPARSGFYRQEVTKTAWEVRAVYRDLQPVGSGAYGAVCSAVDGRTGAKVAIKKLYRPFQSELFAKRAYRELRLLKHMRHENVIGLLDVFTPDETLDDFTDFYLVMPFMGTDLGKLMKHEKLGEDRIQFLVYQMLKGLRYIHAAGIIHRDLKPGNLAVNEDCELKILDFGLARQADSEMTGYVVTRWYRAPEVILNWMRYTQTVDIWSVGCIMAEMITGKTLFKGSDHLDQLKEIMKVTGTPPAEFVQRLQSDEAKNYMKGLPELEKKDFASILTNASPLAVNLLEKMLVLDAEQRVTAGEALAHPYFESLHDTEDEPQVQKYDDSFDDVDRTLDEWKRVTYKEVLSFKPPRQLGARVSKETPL
Description: as §1, §2, §3

Src^p60 = target: T3, Src^p60 (Homo sapiens, UniProt P12931); assay: Src^p60 peptide phosphorylation, time resolved fluorescence
T3 construct: purchased Upstate (Charlottesville, Va.)
Description: as §3
Compounds are serially diluted in DMSO and 1 μL of test compound at 25× final concentration is used. The vehicle control receives DMSO only. Test compounds are pre-incubated with 10 μL of water containing 5.3 units of Src^p60 enzyme (Upstate, Charlottesville, Va.) at room temperature for 15 minutes. […] The reactions are incubated for 1 hr at room temperature. Time resolved fluorescence is read at 665 and 615 nm using the Victor V program LANCE 615/665 on a Victor^2 V plate reader (Perkin Elmer Life Sciences).

T3 sequence (P12931 whole entry): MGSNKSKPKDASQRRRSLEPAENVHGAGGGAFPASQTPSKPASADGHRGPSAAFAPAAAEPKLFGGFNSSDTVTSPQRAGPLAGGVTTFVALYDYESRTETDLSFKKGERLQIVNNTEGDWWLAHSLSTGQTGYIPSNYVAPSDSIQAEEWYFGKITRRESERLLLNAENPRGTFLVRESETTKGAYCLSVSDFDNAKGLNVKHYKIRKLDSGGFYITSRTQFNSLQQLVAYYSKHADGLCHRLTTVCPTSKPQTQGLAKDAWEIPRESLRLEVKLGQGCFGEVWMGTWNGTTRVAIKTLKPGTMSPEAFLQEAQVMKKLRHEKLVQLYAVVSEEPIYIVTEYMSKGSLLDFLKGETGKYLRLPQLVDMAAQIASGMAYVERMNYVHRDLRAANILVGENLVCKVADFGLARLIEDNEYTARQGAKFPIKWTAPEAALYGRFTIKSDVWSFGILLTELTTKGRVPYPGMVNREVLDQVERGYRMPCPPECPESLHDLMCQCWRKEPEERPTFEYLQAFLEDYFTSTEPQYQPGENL
T1 sequence (P45984 whole entry): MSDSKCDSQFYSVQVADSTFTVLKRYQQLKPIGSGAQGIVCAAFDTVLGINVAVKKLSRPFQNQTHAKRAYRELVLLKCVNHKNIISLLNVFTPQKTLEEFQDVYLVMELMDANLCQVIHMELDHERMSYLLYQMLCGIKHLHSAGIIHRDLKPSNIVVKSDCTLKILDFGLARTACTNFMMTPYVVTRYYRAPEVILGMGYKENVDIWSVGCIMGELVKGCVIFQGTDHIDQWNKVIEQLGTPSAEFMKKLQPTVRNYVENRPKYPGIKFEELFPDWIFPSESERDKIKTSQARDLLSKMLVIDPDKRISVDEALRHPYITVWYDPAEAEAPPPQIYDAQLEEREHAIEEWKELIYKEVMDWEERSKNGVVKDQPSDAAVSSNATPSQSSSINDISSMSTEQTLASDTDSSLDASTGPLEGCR

SMILES | IC50 (JNK2α2) [µM] | IC50 (p38γ) [µM] | IC50 (Src^p60) [µM]
CS(=O)(=O)N1CCC(Nc2nccc(-c3c(-c4ccc(F)cc4)nc4occn34)n2)CC1 [CCLXXIX] | 0.0233 | > 100 | > 64
CN1[C@@H]2CC[C@H]1C[C@@H](Nc1nccc(-c3c(-c4ccc(F)cc4)nc4occn34)n1)C2 [CCLXXXI] | 0.762 | > 100 | > 9.03
Fc1ccc(-c2nc3occn3c2-c2ccnc(N[C@@H]3CN4CCC3CC4)n2)cc1 [LXXI] | 1.59 | > 519 | 12.9
Fc1ccc(-c2nc3occn3c2-c2ccnc(NC3CN4CCC3CC4)n2)cc1 (stereo not drawn) [LXXXIV] | 2.26 | > 81.3 | > 29.5
Fc1ccc(-c2nc3occn3c2-c2ccnc(N[C@H]3CN4CCC3CC4)n2)cc1 [LXXXVII] | 1.04 | 59.5 | 25.9
